Common to all, as to assay type: cell-based
The target in one test is T1, human TLR7 (Homo sapiens, UniProt Q9NYK1).
T1 construct: host or cells: HEK-Blue cells
T1 sequence (Q9NYK1 27-1049): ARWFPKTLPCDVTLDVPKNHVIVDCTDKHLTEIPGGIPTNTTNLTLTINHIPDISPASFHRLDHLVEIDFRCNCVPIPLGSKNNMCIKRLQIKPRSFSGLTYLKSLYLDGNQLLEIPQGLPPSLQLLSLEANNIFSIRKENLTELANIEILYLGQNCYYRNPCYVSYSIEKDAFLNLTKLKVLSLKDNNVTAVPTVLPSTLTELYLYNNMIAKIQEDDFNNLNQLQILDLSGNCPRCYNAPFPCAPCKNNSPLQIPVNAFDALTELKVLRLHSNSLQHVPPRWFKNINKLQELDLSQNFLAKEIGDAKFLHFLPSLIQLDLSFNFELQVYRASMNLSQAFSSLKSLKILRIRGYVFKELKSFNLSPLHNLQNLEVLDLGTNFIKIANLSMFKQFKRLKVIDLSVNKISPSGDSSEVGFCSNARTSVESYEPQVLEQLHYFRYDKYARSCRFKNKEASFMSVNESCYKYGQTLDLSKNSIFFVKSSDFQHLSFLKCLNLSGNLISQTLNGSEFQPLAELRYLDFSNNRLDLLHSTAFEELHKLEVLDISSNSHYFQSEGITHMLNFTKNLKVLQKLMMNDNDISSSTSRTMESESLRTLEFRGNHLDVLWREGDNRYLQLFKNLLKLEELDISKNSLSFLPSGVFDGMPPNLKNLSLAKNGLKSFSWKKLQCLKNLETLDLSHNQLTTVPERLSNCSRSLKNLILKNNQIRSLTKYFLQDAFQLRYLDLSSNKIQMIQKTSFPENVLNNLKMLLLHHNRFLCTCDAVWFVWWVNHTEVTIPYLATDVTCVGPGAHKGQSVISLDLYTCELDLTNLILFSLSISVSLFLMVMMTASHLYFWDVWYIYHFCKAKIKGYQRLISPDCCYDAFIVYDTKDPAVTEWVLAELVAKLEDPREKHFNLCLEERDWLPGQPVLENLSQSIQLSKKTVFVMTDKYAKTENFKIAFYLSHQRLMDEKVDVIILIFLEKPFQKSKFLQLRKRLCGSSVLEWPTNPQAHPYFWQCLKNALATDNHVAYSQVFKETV
Briefly: TLR7 inhibition reporter assay (HEK-Blue SEAP). The note with it: HEK-Blue cells overexpressing human TLR7, gardiquimod 7.5 μM, 22 hour incubation. How it is done:
(§1) TLR7/8/9 Inhibition Reporter Assays
Briefly, cells are seeded into Greiner 384 well plates (15000 cells per well for TLR7, 20,000 for TLR8 and 25,000 for TLR9) and then treated with test compounds in DMSO to yield a final dose response concentration range of 0.05 nM-50 μM. […] After a 22 hour incubation at 37° C., 5% CO2, SEAP levels are determined with the addition of HEK-Blue™ Detection reagent (Invivogen), a cell culture medium that allows for detection of SEAP, according to manufacturer's specifications. The percent inhibition is determined as the % reduction in the HEK-Blue signal present in wells treated with agonist plus DMSO alone compared to wells treated with a known inhibitor.

The target of a further test is T2, human TLR8 (Homo sapiens, UniProt Q9NR97).
T2 construct: host or cells: HEK-Blue cells
T2 sequence (Q9NR97 27-1041): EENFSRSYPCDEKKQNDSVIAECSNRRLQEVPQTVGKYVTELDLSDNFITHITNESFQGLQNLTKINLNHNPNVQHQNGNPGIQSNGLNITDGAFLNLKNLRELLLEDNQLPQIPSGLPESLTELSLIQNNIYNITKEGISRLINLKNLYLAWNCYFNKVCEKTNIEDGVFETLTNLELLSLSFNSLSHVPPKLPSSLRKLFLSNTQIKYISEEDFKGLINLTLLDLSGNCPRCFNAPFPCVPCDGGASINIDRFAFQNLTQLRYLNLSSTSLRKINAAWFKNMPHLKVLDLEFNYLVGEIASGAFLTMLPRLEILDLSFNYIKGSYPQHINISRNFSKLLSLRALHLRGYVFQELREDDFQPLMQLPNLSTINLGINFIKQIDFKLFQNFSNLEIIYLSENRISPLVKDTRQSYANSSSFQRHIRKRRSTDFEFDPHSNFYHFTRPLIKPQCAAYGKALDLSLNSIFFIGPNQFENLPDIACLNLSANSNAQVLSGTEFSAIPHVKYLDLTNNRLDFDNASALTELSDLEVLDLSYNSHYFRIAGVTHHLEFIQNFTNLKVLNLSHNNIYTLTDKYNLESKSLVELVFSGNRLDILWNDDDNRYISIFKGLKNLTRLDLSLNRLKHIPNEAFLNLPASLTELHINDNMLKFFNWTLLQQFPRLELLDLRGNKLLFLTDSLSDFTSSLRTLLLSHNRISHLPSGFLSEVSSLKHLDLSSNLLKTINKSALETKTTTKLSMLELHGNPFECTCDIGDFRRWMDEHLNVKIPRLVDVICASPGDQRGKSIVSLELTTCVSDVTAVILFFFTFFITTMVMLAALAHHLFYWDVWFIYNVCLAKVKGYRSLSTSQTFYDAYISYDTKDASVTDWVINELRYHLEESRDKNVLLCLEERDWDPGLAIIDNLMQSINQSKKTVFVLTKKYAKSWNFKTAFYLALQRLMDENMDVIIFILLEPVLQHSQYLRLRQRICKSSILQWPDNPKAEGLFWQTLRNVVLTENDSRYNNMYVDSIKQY
Briefly: TLR8 inhibition reporter assay (HEK-Blue SEAP). The note with it: HEK-Blue cells overexpressing human TLR8, R848 15.9 μM, 22 hour incubation. How it is done:
as §1
(§2) HEK-Blue™-cells (Invivogen) overexpressing human TLR7, TLR8 or TLR9 receptors were used for screening inhibitors of these receptors using an inducible SEAP (secreted embryonic alkaline phosphatase) reporter gene under the control of the IFN-β minimal promoter fused to five NF-κB and AP-1-binding sites. Briefly, cells are seeded into Greiner 384 well plates (15000 cells per well for TLR7, 20,000 for TLR8 and 25,000 for TLR9) and then treated with test compounds in DMSO to yield a final dose response concentration range of 0.05 nM-50 μM. After a 30 minute compound pre-treatment at room temperature, the cells are then stimulated with a TLR7 ligand (gardiquimod at a final concentration of 7.5 μM), TLR8 ligand (R848 at a final concentration of 15.9 μM) or TLR9 ligand (ODN2006 at a final concentration of 5 nM) to activate NF-κB and AP-1 which induce the production of SEAP. After a 22 hour incubation at 37° C., 5% CO2, SEAP levels are determined with the addition of HEK-Blue™ Detection reagent (Invivogen), a cell culture medium that allows for detection of SEAP, according to manufacturer's specifications. The percent inhibition is determined as the % reduction in the HEK-Blue signal present in wells treated with agonist plus DMSO alone compared to wells treated with a known inhibitor.
In general terms: In a reporter assay the amount or activity of a reporter protein is the signal.

In the next test the target is T3, human TLR9 (Homo sapiens, UniProt Q9NR96).
T3 construct: host or cells: HEK-Blue cells
T3 sequence (Q9NR96 26-1032): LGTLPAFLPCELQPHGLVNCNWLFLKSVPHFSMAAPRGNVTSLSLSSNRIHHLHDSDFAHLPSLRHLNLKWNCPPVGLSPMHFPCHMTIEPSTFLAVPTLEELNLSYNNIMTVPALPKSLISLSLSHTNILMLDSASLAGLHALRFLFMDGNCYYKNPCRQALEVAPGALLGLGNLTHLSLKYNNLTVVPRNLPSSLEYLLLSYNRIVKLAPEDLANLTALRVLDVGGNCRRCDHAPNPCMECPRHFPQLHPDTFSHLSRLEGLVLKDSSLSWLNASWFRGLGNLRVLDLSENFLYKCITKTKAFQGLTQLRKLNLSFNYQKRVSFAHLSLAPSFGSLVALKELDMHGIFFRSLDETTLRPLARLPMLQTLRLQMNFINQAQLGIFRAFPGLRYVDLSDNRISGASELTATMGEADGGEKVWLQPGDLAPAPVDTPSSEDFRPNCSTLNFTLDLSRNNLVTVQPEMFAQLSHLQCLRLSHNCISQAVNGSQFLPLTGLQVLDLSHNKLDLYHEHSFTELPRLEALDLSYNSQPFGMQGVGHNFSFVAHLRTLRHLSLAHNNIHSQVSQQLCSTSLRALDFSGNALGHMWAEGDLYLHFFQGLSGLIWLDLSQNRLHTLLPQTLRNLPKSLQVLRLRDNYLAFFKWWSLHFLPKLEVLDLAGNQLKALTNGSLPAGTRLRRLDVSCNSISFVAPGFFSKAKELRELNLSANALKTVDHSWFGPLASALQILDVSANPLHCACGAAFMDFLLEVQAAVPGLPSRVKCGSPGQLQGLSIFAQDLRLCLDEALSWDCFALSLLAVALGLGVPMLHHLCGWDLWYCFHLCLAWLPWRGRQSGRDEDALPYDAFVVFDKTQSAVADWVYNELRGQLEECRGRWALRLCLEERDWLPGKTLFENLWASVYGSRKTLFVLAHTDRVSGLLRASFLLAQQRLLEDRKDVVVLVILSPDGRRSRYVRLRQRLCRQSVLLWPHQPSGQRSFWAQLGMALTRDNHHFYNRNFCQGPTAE
Kind of test: TLR9 inhibition reporter assay (HEK-Blue SEAP). The note with it: HEK-Blue cells overexpressing human TLR9, ODN2006 5 nM, 22 hour incubation. How it is done: as §1, §2

Drawing on patent US12187723B2 (BRISTOL-MYERS SQUIBB COMPANY, priority 2019, dated 2025), this text covers IC50 for five molecules.

By IC50 is commonly meant the concentration that gives 50% inhibition. Read a low IC50 as higher potency.

With `CCc1cc2c(cc1-c1cc(OC)c3ncnn3c1)[nH]c(=O)n2[C@@H]1CCCN(C(C)CC)C1` (stereo partly drawn) [Example 176, 1-((3R)-1-(sec-butyl)piperidin-3-yl)-6-ethyl-5-(8-methoxy-[1,2,4]triazolo[1,5-a]pyridin-6-yl)-1,3-dihydro-2H-benzo[d]imidazol-2-one], the IC50 at human TLR7 came to 3.38 nM; at human TLR8, 8 nM.

`CCc1cc2c(cc1-c1cc(OC)c3ncnn3c1)[nH]c(=O)n2[C@@H]1CCCN(C2CCCOC2)C1` (stereo partly drawn) [Example 214, 6-ethyl-5-(8-methoxy-[1,2,4]triazolo[1,5-a]pyridin-6-yl)-1-((3R)-1-(tetrahydro-2H-pyran-3-yl)piperidin-3-yl)-1,3-dihydro-2H-benzo[d]imidazol-2-one]: the IC50 against human TLR7 came out at 17.1 nM; at human TLR8, 19.3 nM.

With `Cc1c(-c2cc3[nH]c(=O)n([C@@H]4CCCN(CC(C)(C)C)C4)c3cc2C(C)C)cn2ncnc2c1C` [Example 152, (R)-5-(7,8-dimethyl-[1,2,4]triazolo[1,5-a]pyridin-6-yl)-6-isopropyl-1-(1-neopentylpiperidin-3-yl)-1,3-dihydro-2H-benzo[d]imidazol-2-one], the results for the IC50 against human TLR7 and on human TLR8 were 5.55 nM and 24.5 nM, respectively.

For `COc1cc(-c2cc3[nH]c(=O)n(C4CCC(N5CC6(C5)CS(=O)(=O)C6)CC4)c3cc2C(C)C)cn2ncnc12` (single isomer, unassigned) [Example 244, 1-(4-(2,2-dioxido-2-thia-6-azaspiro[3.3]heptan-6-yl)cyclohexyl)-6-isopropyl-5-(8-methoxy-[1,2,4]triazolo[1,5-a]pyridin-6-yl)-1,3-dihydro-2H-benzo[d]imidazol-2-one], the IC50 at human TLR7 amounted to 8.3 nM; at human TLR8, 3.54 nM.

With `Cc1cc2c(cc1-c1cc(C)c3ncnn3c1)[nH]c(=O)n2[C@@H]1CCCN(CCC(C)C)C1` [Example 38, (R)-1-(1-isopentylpiperidin-3-yl)-6-methyl-5-(8-methyl-[1,2,4]triazolo[1,5-a]pyridin-6-yl)-1,3-dihydro-2H-benzo[d]imidazol-2-one], the IC50 is 16.7 nM against human TLR8 and 5050 nM against human TLR9.
